Measurements taken from patent publication US8598216B1 (Abbvie Inc., priority 2010, dated 2013).

How the values were obtained:
[1] = Intrinsic dissolution rate (IDR), compressed disc, USP II; assay type: physicochemical; details: 200 mL pH 6.8 phosphate buffer, paddle 100 rpm; FIG. 10
Experimental: Drug dissolution was measured using in USP II (Dissolution medium: 200 mL pH 6.8 phosphate buffer; Paddle speed: 100 rpm).

in vivo = details: dog
Experimental: A series of studies evaluated the effect of the bis-hydrochloride and bis-tosylate form on the ritonavir plasma concentrations following single 100 mg base doses in dogs. Each of the salts was evaluated in a single group of six dogs. The free base and the two salts were weighed into gelatin capsules at a dose of 100 mg base for dosing in the dogs. The dogs were fasted overnight prior to dosing, but were permitted free access to water. Approximately 30 minutes prior to dosing, the dogs received a 100 ug/kg subcutaneous dose of histamine. Plasma concentrations of parent drug were determined by HPLC-MS/MS. The following formulations/salts were evaluated: amorphous ritonavir bis-hydrochloride, amorphous ritonavir free base, and ritonavir bis-tosylate.

[2] = Dynamic moisture sorption (hygroscopicity); assay type: physicochemical; details: 90% RH, 25° C.; FIG. 7
Experimental: Hygroscopicity was evaluated on a dynamic moisture sorption balance (IGAsorp, Hiden Isochema, Warrington, UK) equipped with a data analyzer (IGAsorp, version 6.0.0.23, Hiden Isochema, Warrington UK). The balance was calibrated using standardized weights of 20, 50, and 100 mg. The RH probe was calibrated using standardized salt solutions of Lithium Chloride, Potassium Carbonate, and Sodium Chloride. During the experiment, the flow rate of nitrogen gas at different relative humidity was 250 mL/min. For anhydrous materials, the sample was first dried with dry nitrogen at 50° C. for two hours. The temperature was then set to 25° C. and the relative humidity was changed from 0% to 90% and back to 0% at 10% interval. For hydrated samples, the temperature was set to 25° C. and the relative humidity was changed at 10% interval from 30% to 90%, back to 10%, and then to 90%.

| AUC (in vivo; po, 100 mg, range) [ng·h/mL] | Cmax (in vivo; po, 100 mg, peak concentration (Cmax), range) [ng/mL] | moisture picked up [2] | AUC, range (in vivo; po, 100 mg) [ng·h/mL] | peak concentration (Cmax), range (in vivo; po, 100 mg) [ng/mL] | Compound | intrinsic dissolution rate compared with ritonavir free base [1] | bioavailability compared with free base (in vivo) |
| --- | --- | --- | --- | --- | --- | --- | --- |
| 3160 to 20200 | 1160 to 8390 | about 20 % (w/w) | – | – | CC(C)c1nc(CN(C)C(=O)N[C@H](C(=O)N[C@@H](Cc2ccccc2)C[C@H](O)[C@H](Cc2ccccc2)NC(=O)OCc2cncs2)C(C)C)cs1.Cl.Cl [ritonavir bis-hydrochloride] | significantly faster dissolution rate than the ritonavir free base | greater bioavailability than the free base of ritonavir |
| < 22 | – | – | – | – | CC(C)c1nc(CN(C)C(=O)N[C@H](C(=O)N[C@@H](Cc2ccccc2)C[C@H](O)[C@H](Cc2ccccc2)NC(=O)OCc2cncs2)C(C)C)cs1 [ritonavir free base, (2S,3S,5S)-5-(N-(N-((N-methyl-N-((2-isopropyl-4-thiazolyl)-methyl)amino)carbonyl)-L-valinyl)amino)-2-(N-((5-thiazolyl)-methoxy-carbonyl)-amino)-1,6-diphenyl-3-hydroxyhexane, reference compound] | – | – |
| – | – | – | 70 to 6420 | 10 to 1620 | ritonavir bis-tosylate [reference compound] | – | – |
